Entries after “also recorded” stand apart in the source; their conditions may differ. Residues, ends and D or L forms follow the SMILES beside them.
Columns and labels:
[1] = test system: FKBP51; assay: Differential scanning fluorimetry (DSF), melting temperature shift of FKBP51; type: binding, human; conditions: FKBP51 0.1 mg/ml, 5X SYPRO orange, 0.5X PBS
Protocol: (§1) Differential scanning fluorimetry was performed using Bio-Rad CFX96 qPCR following a well-established protocol. Briefly, 25 µl of solution containing purified FKBP51 at a concentration of 0.1 mg/ml, 5X SYPRO orange (Life Technologies), and Hsp90 C-terminal peptide ranging from 0–500 µM in 0.5X PBS was transferred to a 96-well PCR plate in triplicate. The plate was centrifuged, sealed and the fluorescence was measured using the FRET channel between 20 and 80 °C with an increment of 0.2 °C in each cycle. The melting temperature was determined from the first derivative peaks of the melting curve using Bio-Rad CFX96 manager software. Further, the dissociation constant of the complex between FKBP51 and C90 was determined by fitting the resulting data using single site ligand binding model[35] with the bottom (T1) and top (T2) temperatures fitting to 43.8 and 48.5 °C, respectively. The concentration of FKBP51 (2 µM) was used as the value of the constant P. The fitting was performed using GraphPad Prism, version 7.02. Additionally, we incubated the FKBP51 with 200 µM of control peptide (DDDDDDDDDD) in a similar way.

[2] = target: T1, FKBP51 (TPR domain) (Homo sapiens, UniProt Q13451); assay: Differential scanning fluorimetry (DSF), dissociation constant of FKBP51-C90 complex under thermal denaturation; type: binding
T1 construct: FKBP51 full length DNA (IMAGE cDNA clone: 5753397 5′) was PCR amplified; GST (N, cleaved yes); made in house; host or cells: E. coli BL21
T1 sequence (Q13451 1-457): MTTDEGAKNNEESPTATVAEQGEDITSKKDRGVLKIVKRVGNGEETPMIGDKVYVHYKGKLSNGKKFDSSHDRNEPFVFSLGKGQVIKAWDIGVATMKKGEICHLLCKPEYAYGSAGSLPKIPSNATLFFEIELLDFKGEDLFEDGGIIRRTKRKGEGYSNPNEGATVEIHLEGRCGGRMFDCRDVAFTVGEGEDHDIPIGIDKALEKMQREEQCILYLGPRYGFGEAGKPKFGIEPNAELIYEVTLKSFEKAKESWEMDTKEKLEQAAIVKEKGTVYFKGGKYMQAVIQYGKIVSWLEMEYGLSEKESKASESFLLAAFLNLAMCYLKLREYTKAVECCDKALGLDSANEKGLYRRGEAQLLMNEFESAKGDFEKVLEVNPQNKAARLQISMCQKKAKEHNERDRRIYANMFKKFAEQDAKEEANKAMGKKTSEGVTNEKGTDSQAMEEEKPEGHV
Protocol: as §1

CSCC[C@H](NC(=O)[C@H](CCCNC(=N)N)NC(=O)[C@H](CO)NC(=O)[C@@H](NC(=O)[C@H](CC(=O)O)NC(=O)[C@H](Cc1c[nH]cn1)NC(=O)[C@H](Cc1c[nH]cn1)NC(=O)[C@H](Cc1c[nH]cn1)NC(=O)[C@H](Cc1c[nH]cn1)NC(=O)[C@H](Cc1c[nH]cn1)NC(=O)[C@@H](N)Cc1c[nH]cn1)[C@@H](C)O)C(=O)N[C@@H](CCC(=O)O)C(=O)N[C@@H](CCC(=O)O)C(=O)N[C@H](C(=O)N[C@@H](CC(=O)O)C(=O)O)C(C)C [C90] (H-HHHHHHDTSRMEEVD-OH)
ΔTm (first melting point) ([1]; C90 250 µM vs 0 µM, triplicate, first derivative of melting curve): 4.8 °C | first melting point of FKBP51 in presence of peptide ([1]; C90 250 µM, triplicate, without peptide 44 °C / 43.8 °C): 48.6 °C | second melting point of FKBP51 in presence of peptide ([1]; C90 250 µM, triplicate, without peptide 58.6 °C / 57.8 °C): without much change in the second melting point; also recorded: without affecting the second melting point | Kd ([2]; DSF under thermal denaturation, full-length FKBP51 0.1 mg/ml (2 µM), 5X SYPRO orange, 0.5X PBS, C90 0–250 µM / 0–500 µM (method), triplicate, 20–80 °C, 0.2 °C increments, Tm by first derivative, single site ligand binding model, T1 43.8 and T2 48.5 °C, R^2 0.99): 70 ± 32 µM | dissociation constant compared with reported FKBP38-MEEVD peptide ([2]; DSF value of FKBP51-C90 complex compared with literature value of FKBP38-MEEVD peptide): very similar to the reported dissociation constant of FKBP38-MEEVD peptide

H-DDDDDDDDDD-OH [control peptide, reference compound]
change in melting point of FKBP51 (control peptide) ([1]; control peptide 200 µM vs 0 µM): did not lead to any change in the melting point of FKBP51
